Measurements from publication PMC10793205, “Differential transmetallation of complexes of the anti-cancer thiosemicarbazone, Dp4e4mT: effects on anti-proliferative efficacy, redox activity, oxy-myoglobin and oxy-hemoglobin oxidation” (Chemical Science, 2023).

Assays:
[1] = target: oxy-Hb (Homo sapiens, UniProt P68871+P69905); experiment: Oxidation of purified oxy-Hb to met-Hb (UV-vis); assay type: biochemical; details: 10 μM agent, oxy-Hb 40 μM, 1–3 h/20 °C
Excerpt: As such, it was important to examine the effect of the Dp4e4mT complexes on oxy-Hb and oxy-Mb oxidation (Fig. 6 and 7). Comparisons were made to three controls, namely DFO, Dp44mT, and DpC, as well as their Fe(III) complexes. […] In contrast, the Fe(III) complexes of Dp44mT and DpC were positive controls, as they induce oxidation of oxy-Mb.[28,39,42]
Fig. 7 (A and B) Investigation of the effects of Dp4e4mT and its Fe(III), Co(III), Ni(II), Cu(II), Zn(II), Ga(III), and Pd(II) complexes versus DFO, Dp44mT, DpC and their Fe(III) complexes (10 μM) on met-Hb generation (% zero time) after an incubation of 1–3 h/20 °C with purified oxy-Hb (40 μM). (C) Investigation of the effects of Dp4e4mT and its Fe(III), Co(III), Ni(II), Cu(II), Zn(II), Ga(III), or Pd(II) complexes relative to the positive controls DFO, Dp44mT, DpC, and their Fe(III) complexes (10 μM) on oxy-Hb oxidation in intact human erythrocytes after a 3 h/37 °C incubation. Results are mean ± SD (3 experiments).
Spectroscopic Examination of Met-Mb and Met-Hb Formation from Oxy-Mb and Oxy- […]
Oxy-Mb and oxy-Hb solutions were prepared following established protocols.8, 17 In brief, solutions of reduced Mb and Hb in PBS (pH 7.2) were prepared by adding 1.2 mL of Na2S2O4 (12 mM) to 38 mL of met-Mb and met-Hb solution (40 μM). 17 Subsequently, oxy-Mb and oxy-Hb were generated by gently passing 150 mL of oxygen (from an air-filled syringe) through the solution containing reduced Mb and Hb, effectively eliminating any residual Na2S2O4. Following this, the oxy-Mb and oxy-Hb solutions were passed through a PD-10 column prepacked with 8.3 mL of Sephadex G-25 and equilibrated with PBS (pH 7.2). 17 In experiments examining the activity of the agents, all complexes were dissolved in 1,2-propanediol, then diluted to 10 µM in PBS (pH 7.2). The experiments were conducted over incubations of 0 to 3 h with the agents. UV-Vis spectra covering the range of 300 to 700 nm were recorded at a temperature of 20°C using a Shimadzu UV−Vis spectrophotometer (UV-1800; Shimadzu, Kyoto, Japan). Concentrations of met-Mb and met-Hb, as well as reduced-Mb and reduced-Hb, were determined at 409 nm and 435 nm, respectively. Concentrations of oxy-Mb and oxy-Hb were determined at 544 nm and 582 nm, respectively. 17

[2] = tested on: MRC-5 fibroblasts; experiment: MTT cellular proliferation assay, mortal MRC-5 fibroblasts; assay type: cell-based; details: 37 °C, mean ± SD (3 experiments)
Method: To examine the selectivity of the Dp4e4mT complexes against neoplastic versus normal mortal cells, their anti-proliferative efficacy was compared to mortal MRC-5 fibroblasts after a 72 h/37 °C incubation (Table 3). […] To further examine selectivity, an in vitro therapeutic index was calculated as per our previous investigations.[28,57,59,66,67] This parameter is derived from the ratio of the IC50 of MRC-5 cells/IC50 of SK-N-MC or AsPC-1 cells; with high ratios indicating greater selective anti-proliferative activity against neoplastic cells (Table 3). The mean therapeutic index is the average of the therapeutic indices calculated for both tumor cell-types. […] The mean therapeutic index of Dp4e4mT exceeded that obtained for clinically trialed DpC (157), as well as that of Dp44mT (112) and DFO (6). […]
All cell lines were procured from the American Type Culture Collection (ATCC; Manassas, VA). The SK-N-MC neuroepithelioma cell line and the mortal MRC-5 fibroblasts were cultured in minimum essential medium (Sigma-Aldrich), while the AsPC-1 cell line was cultured in Roswell Park Memorial Institute 1640 medium (Thermo Fisher Scientific, MA, USA). Both media were supplemented with 10% fetal calf serum, non-essential amino acids (1 mM), sodium pyruvate (1 mM), L-glutamine (2 mM), penicillin (100 U/mL), streptomycin (100 U/mL), and Fungizone (0.5 µg/mL). Cells were maintained at 37 °C in an incubator under a humidified atmosphere with 5% CO 2, following established protocols. 11 Cellular Proliferation Assay
Cellular proliferation was evaluated through the established 3-(4,5-dimethylthiazol-2-yl)-2,5-diphenyltetrazolium bromide (MTT) proliferation assay, validated by viable cell counts.12 […]
Ligands and complexes were dissolved in DMSO to make a stock solution of 10 mM, subsequently diluted in culture media. For cell culture experiments, the DMSO's maximum concentration remained below 0.5% (v/v), with no discernible impact on proliferation.12 MTT […]
Trypan blue staining.12 Analysis of the data was executed employing MARS Data Analysis Software (BMG LabTech; version 3.30). The concentration of agents necessary to inhibit cellular proliferation by 50% (IC 50) was then calculated. […]

[3] = Homo sapiens, MRC5, MRC-5, 72 h

oxy-Hb, sequence (P69905 2-142 limits assumed): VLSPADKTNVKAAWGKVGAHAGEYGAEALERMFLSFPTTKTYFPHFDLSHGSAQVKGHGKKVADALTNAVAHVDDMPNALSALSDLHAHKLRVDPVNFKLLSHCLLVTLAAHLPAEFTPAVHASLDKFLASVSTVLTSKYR
oxy-Hb, sequence (P68871 2-147 limits assumed): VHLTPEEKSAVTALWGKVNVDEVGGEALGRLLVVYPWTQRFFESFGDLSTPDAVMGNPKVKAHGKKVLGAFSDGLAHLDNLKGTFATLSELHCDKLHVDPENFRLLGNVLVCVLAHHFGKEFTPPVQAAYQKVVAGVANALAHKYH

Structure (SMILES) | oxy-Hb oxidation, purified oxy-Hb (in words) [1] | IC50 [2, 3] [nM] | IC50 ([2]; MRC-5, 72 h) [nM] | other results
CCN(C)C([S-])=NN=C(c1ccccn1)c1ccccn1.CCN(C)C([S-])=NN=C(c1ccccn1)c1ccccn1.[Zn+2] [[Zn(Dp4e4mT)2]] | significantly increased oxy-Mb and oxy-Hb oxidation | – | – | –
CCN(C)C(=S)NN=C(c1ccccn1)c1ccccn1 [Dp4e4mT, di-2-pyridylketone-4-ethyl-4-methyl-3-thiosemicarbazone] | – | 1810 ± 518 | – | –
CCN(C)C([S-])=NN=C(c1ccccn1)c1ccccn1.[Cl-].[Pd+2] [[Pd(Dp4e4mT)Cl]] | minimal impact | – | 1040 ± 11 | oxy-Hb oxidation, purified oxy-Hb (in words) ([1]; listed as Dp4e4mT Pd(II) complex): low levels of oxy-Hb oxidation
CCN(C)C([S-])=NN=C(c1ccccn1)c1ccccn1.[Cl-].[Cu+2] [[Cu(Dp4e4mT)Cl]] | lowest ability to oxidize oxy-Mb and oxy-Hb | – | 391 ± 72 | –
CN(C)C(=S)NN=C(c1ccccn1)c1ccccn1 [Dp44mT, di-2-pyridylketone 4,4-dimethyl-3-thiosemicarbazone, reference compound] | – | 1073 ± 7 | – | –
CCN(C)C([S-])=NN=C(c1ccccn1)c1ccccn1.CCN(C)C([S-])=NN=C(c1ccccn1)c1ccccn1.[Fe+3] [[Fe(Dp4e4mT)2]^+] | – | – | 1980 ± 6 | –
CCN(C)C([S-])=NN=C(c1ccccn1)c1ccccn1.CCN(C)C([S-])=NN=C(c1ccccn1)c1ccccn1.[Ga+3] [[Ga(Dp4e4mT)2]^+] | significantly increased oxy-Mb and oxy-Hb oxidation | – | 774 ± 14 | –
CN(C(=S)NN=C(c1ccccn1)c1ccccn1)C1CCCCC1 [DpC, di-2-pyridylketone 4-cyclohexyl-4-methyl-3-thiosemicarbazone, reference compound] | – | 2987 ± 8 | – | –
CCN(C)C([S-])=NN=C(c1ccccn1)c1ccccn1.CCN(C)C([S-])=NN=C(c1ccccn1)c1ccccn1.[Co+3] [[Co(Dp4e4mT)2]^+] | minimal impact | – | 3901 ± 7 | oxy-Hb oxidation, purified oxy-Hb (in words) ([1]; listed as Dp4e4mT Co(III) complex): low levels of oxy-Hb oxidation
CCN(C)C([S-])=NN=C(c1ccccn1)c1ccccn1.CCN(C)C([S-])=NN=C(c1ccccn1)c1ccccn1.[Ni+2] [[Ni(Dp4e4mT)2]] | minimal impact | – | > 5000 | oxy-Hb oxidation, purified oxy-Hb (in words) ([1]; listed as Dp4e4mT Ni(II) complex): low levels of oxy-Hb oxidation
